Counter-ions that a name gives are not always drawn.
Assays:
[1] = cited from earlier work
[2] = system: ABCB11; details: cited from earlier work
[3] = system: ABCC3; details: cited from earlier work
[4] = biological target: T1, OSTα/β (Homo sapiens, UniProt Q86UW1); experiment: Inhibition of OSTα/β-mediated DHEAS uptake in OSTα/β-overexpressing Flp-In 293; format: cell-based; details: for Maximal inhibition of OSTα/β-mediated DHEAS uptake: Method 1, up to 200 µM inhibitor; for Inhibition of OSTα/β-mediated DHEAS uptake (screening): Method 1 (10 min preincubation), test compound 100 µM; for Inhibition of OSTα/β-mediated DHEAS uptake: inhibitor 100 µM, DHEAS 20 µM
T1 sequence (Q86UW1 1-340): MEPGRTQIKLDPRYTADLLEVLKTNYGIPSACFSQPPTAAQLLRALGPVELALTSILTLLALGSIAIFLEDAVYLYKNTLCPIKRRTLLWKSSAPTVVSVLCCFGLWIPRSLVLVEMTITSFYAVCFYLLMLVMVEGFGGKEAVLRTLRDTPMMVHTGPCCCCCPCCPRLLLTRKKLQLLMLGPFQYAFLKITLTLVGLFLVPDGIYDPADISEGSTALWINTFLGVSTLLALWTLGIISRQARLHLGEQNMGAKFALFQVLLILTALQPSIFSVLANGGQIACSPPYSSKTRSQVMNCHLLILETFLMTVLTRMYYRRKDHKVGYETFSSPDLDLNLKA
T1 sequence (Q86UW2 1-128 partner): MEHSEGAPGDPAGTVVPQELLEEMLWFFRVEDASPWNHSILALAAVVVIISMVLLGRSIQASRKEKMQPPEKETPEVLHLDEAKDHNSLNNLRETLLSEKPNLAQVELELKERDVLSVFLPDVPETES

[5] = biological target: T1, OSTα/β; experiment: Inhibition of OSTα/β-mediated taurocholate; format: cell-based; details: for Inhibition of OSTα/β-mediated TCA uptake (statistical significance): Methods 1-3, method not specified; for inhibition at 100 µM: read-out: Inhibition of OSTα/β-mediated TCA uptake
[6] = biological target: T1, OSTα/β; experiment: Inhibition of OSTα/β-mediated digoxin uptake in OSTab cells; format: cell-based; details: read-out: Inhibition of OSTα/β-mediated digoxin uptake
[7] = biological target: T1, OSTα/β; details: cell line ectopically expressing human OSTα/β; cited from earlier work
[8] = system: OSTα/β; details: single concentration of 100–1000 μM; cited from earlier work
[9] = system: OSTα/β; details: cited from earlier work
[10] = system: ABCC4; details: cited from earlier work
[11] = Concentration in hepatocyte cultures; format: in vitro ADME; details: equivalent of ~700 ng/mg protein
[12] = cited from earlier work; remark: listed apart in the source
[13] = Flp-In-293, read-out: Inhibition of OSTα/β-mediated DHEAS uptake (screening)
[14] = Flp-In-293, read-out: Inhibition of OSTα/β-mediated DHEAS uptake
[15] = Method 2 (co-incubation only), 30 s uptake

C#C[C@]1(O)CC[C@H]2[C@@H]3CCc4cc(O)ccc4[C@H]3CC[C@@]21C [ethinylestradiol]
Associated cases of DILI [1]: more than 100 cases
Interaction with ABCB11 ([2]; ref Supporting Table 1): interact
Interaction with ABCC3 ([3]; ref Supporting Table 1): interact

C[C@H](CCC(=O)NCC(=O)O)[C@H]1CC[C@H]2[C@@H]3[C@H](O)C[C@@H]4C[C@H](O)CC[C@]4(C)[C@H]3CC[C@]12C [glycochenodeoxycholate]
Maximal inhibition of OSTα/β-mediated DHEAS uptake ([4]; DHEAS 4 µM): less than 50%

CC1(C)S[C@@H]2[C@H](NC(=O)[C@H](N)c3ccc(O)cc3)C(=O)N2[C@H]1C(=O)O [amoxicillin]
Inhibition of OSTα/β-mediated DHEAS uptake (screening) ([4]; DHEAS 4 µM, 30 s uptake): decreased
Associated cases of DILI [1]: more than 100 cases

CC[C@H](C)C(=O)O[C@H]1C[C@@H](C)C=C2C=C[C@H](C)[C@H](CC[C@@H]3C[C@@H](O)CC(=O)O3)[C@H]21 [lovastatin]
inhibition at 100 µM [4, 13]: ~21%

COc1ccc2c(c1)c(CC(=O)O)c(C)n2C(=O)c1ccc(Cl)cc1 [indomethacin]
Inhibition of OSTα/β-mediated TCA uptake (statistical significance) ([5]; inhibitor 100 µM, TCA 20 µM): did not reach statistical significance
inhibition at 100 µM [4, 14]: ~20%
inhibition at 100 µM [4, 13]: 5 to 23%
Inhibition of OSTα/β-mediated DHEAS uptake [4, 15]: no inhibition

CCc1c(Cl)c(O)c(Cl)c(O)c1C(=O)O[C@H]1[C@H](O)[C@H](OC)[C@H](OC/C2=C\C=C\C[C@H](O)/C(C)=C/[C@H](CC)[C@@H](O[C@@H]3OC(C)(C)[C@@H](OC(=O)C(C)C)[C@H](O)[C@@H]3O)/C(C)=C/C(C)=C/C[C@@H]([C@@H](C)O)OC2=O)O[C@@H]1C [fidaxomicin]
inhibition at 100 µM [6]: 90%
Inhibition of OSTα/β-mediated TCA uptake ([5]; Method 2 (co-incubation only), inhibitor 100 µM, TCA 20 µM, 30 s uptake): > 70%
inhibition at 100 µM [5]: > 70%
inhibition at 100 µM [4, 13]: 71%
Inhibition of OSTα/β-mediated DHEAS uptake ([4]; Method 1 (10 min preincubation only), 30 s uptake): inhibited DHEAS uptake
Inhibition of ABCC3 [3]: inhibit
Inhibition of OSTα/β-mediated TCA transport [7]: inhibited

C[C@H](CCC(=O)NCCS(=O)(=O)O)[C@H]1CC[C@H]2[C@@H]3CC[C@@H]4C[C@H](OS(=O)(=O)O)CC[C@]4(C)[C@H]3CC[C@]12C [TLCAS, taurolithocholic acid sulfate]
Stimulation of OSTα/β-mediated TCA uptake ([5]; Method 2 (co-incubation only), 100 µM, TCA 20 µM): ~ 25%
Inhibition of OSTα/β-mediated TCA uptake (statistical significance) ([5]; inhibitor 100 µM, TCA 20 µM): did not reach statistical significance
Inhibition of OSTα/β-mediated TCA and ES uptake [8]: inhibited

CC(C)c1nc(N(C)S(C)(=O)=O)nc(-c2ccc(F)cc2)c1/C=C/[C@@H](O)C[C@@H](O)CC(=O)O [rosuvastatin]
Inhibition of OSTα/β-mediated DHEAS uptake (screening) ([4]; DHEAS 4 µM, 30 s uptake): did not inhibit OSTα/β

CC(C)/N=c1\cc2n(-c3ccc(Cl)cc3)c3ccccc3nc-2cc1Nc1ccc(Cl)cc1 [clofazimine]
OSTα/β inhibitor identification in screen of 1,280 FDA-approved drugs [9]: OSTα/β inhibitor

O=C1OC(c2ccc(O)c(S(=O)(=O)O)c2)(c2ccc(O)c(S(=O)(=O)O)c2)c2c(Br)c(Br)c(Br)c(Br)c21 [sulfobromophthalein]
inhibition at 100 µM [4, 13]: 5 to 23%

O=C1[C@H](CC[C@H](O)c2ccc(F)cc2)[C@@H](c2ccc(O)cc2)N1c1ccc(F)cc1 [ezetimibe]
Inhibition of OSTα/β-mediated DHEAS uptake (screening) ([4]; DHEAS 4 µM, 30 s uptake): could not be reproduced

Cc1c(C)c2c(c(C)c1OS(=O)(=O)O)CCC(C)(COc1ccc(CC3SC(=O)NC3=O)cc1)O2 (centres unmarked) [troglitazone sulfate]
Inhibition of ABCC4 [10]: inhibits
Concentration in hepatocyte cultures, molar equivalent [11]: ~ 190 µM
Inhibition of ABCB11 [2]: inhibits
Inhibition of OSTα/β-mediated TCA transport [7]: inhibited
Concentration in hepatocyte cultures [12]: ~ 700 ng/mg protein

C#C[C@]1(OC(C)=O)CC[C@H]2[C@@H]3CCC4=CC(=NO)CC[C@@H]4[C@H]3CC[C@@]21CC (mixture of isomers) [norgestimate]
inhibition at 100 µM [4, 13]: 35 to 64%
Maximal inhibition of OSTα/β-mediated DHEAS uptake ([4]; DHEAS 4 µM): less than 50%
Associated cases of DILI [1]: more than 100 cases

C[C@H]1c2cccc(O)c2C(=O)C2=C(O)[C@]3(O)C(=O)C(C(N)=O)=C(O)[C@@H](N(C)C)[C@@H]3[C@@H](O)[C@@H]21 [doxycycline]
inhibition at 100 µM [4, 13]: ~19%

Cc1c(C)c2c(c(C)c1O)CCC(C)(COc1ccc(CC3SC(=O)NC3=O)cc1)O2 (centres unmarked) [troglitazone]
Inhibition of OSTα/β-mediated DHEAS uptake (screening) ([4]; DHEAS 4 µM, 30 s uptake): novel OSTα/β inhibitors
IC50 for inhibition of OSTα/β-mediated DHEAS uptake ([4]; Method 1, 0.125–200 µM inhibitor, DHEAS 4 µM, 30 s uptake): did not yield a consistent inhibition curve

C[C@H]1O[C@@H](O[C@H]2[C@@H](O)C[C@H](O[C@H]3[C@@H](O)C[C@H](O[C@H]4CC[C@@]5(C)[C@H](CC[C@@H]6[C@@H]5C[C@@H](O)[C@]5(C)[C@@H](C7=CC(=O)OC7)CC[C@]65O)C4)O[C@@H]3C)O[C@@H]2C)C[C@H](O)[C@@H]1O [digoxin]
inhibition at 100 µM [4, 13]: 5 to 23%

CC(=O)S[C@@H]1CC2=CC(=O)CC[C@]2(C)[C@H]2CC[C@@]3(C)[C@@H](CC[C@@]34CCC(=O)O4)[C@H]12 [spironolactone]
inhibition at 100 µM [5]: ~20%
inhibition at 100 µM [4, 14]: ~20%
Inhibition of OSTα/β-mediated DHEAS uptake [4, 15]: no inhibition
Inhibition of OSTα/β-mediated TCA and ES uptake [8]: inhibited

CCCN(CCC)S(=O)(=O)c1ccc(C(=O)O)cc1 [probenecid]
inhibition at 100 µM [4, 13]: 5 to 23%

O=C(O)[C@H]1/C(=C/CO)O[C@@H]2CC(=O)N21 [clavulanic acid]
Inhibition of OSTα/β-mediated DHEAS uptake (screening) ([4]; DHEAS 4 µM, 30 s uptake): decreased
Associated cases of DILI [1]: more than 100 cases
